The test system of data set [1] is Mus musculus. The data set can be described thus: Modification of circling behavior in mice with unilateral striatal lesions produced by 6-hydroxydopamine injection was measured at a dose of 0.013 mmol/kg. In kind it is functional.
Data set [2] relates to Mus musculus. The data set can be described thus: Stimulation of spontaneous locomotor activity of compound was measured in mice at a dose of 0.01 mmol/kg). It counts as functional.
Data set [3] deals with Mus musculus. As to the kind of experiment: Stimulation of spontaneous locomotor activity of compound was measured in mice at a dose of 0.04 mmol/kg). In kind it is functional.
Data set [4] has as its system Mus musculus. The data set can be described thus: Modification of circling behavior in mice with unilateral striatal lesions produced by 6-hydroxydopamine injection was measured at a dose of 0.027 mmol/kg. In kind it is functional.
Data set [5] relates to Mus musculus. As to the kind of experiment: Stimulation of spontaneous locomotor activity of compound was measured in mice at a dose of 0.02 mmol/kg). It counts as functional.
Data set [6] is described as follows: Partition coefficient (logP). It counts as physicochemical. Particulars: octanol/water.
The subject of data set [7] is Mus musculus. As to the kind of experiment: Stimulation of spontaneous locomotor activity of compound was measured in mice at a dose of 0.025 mmol/kg). In kind it is functional. Also noted: unit not given here.
Data set [8] has as its system Mus musculus. As to the kind of experiment: Stimulation of spontaneous locomotor activity of compound was measured in mice at a dose of 0.05 mmol/kg). In kind it is functional. On the set-up: unit not given here.
Data set [9] relates to Mus musculus. The data set can be described thus: Stimulation of spontaneous locomotor activity of compound was measured in mice at a dose of 0.10 mmol/kg). It counts as functional. On the set-up: unit not given here.
The subject of data set [10] is Mus musculus. The data set can be described thus: Stimulation of spontaneous locomotor activity of compound was measured in mice at a dose of 0.1 mmol/kg). In kind it is functional.
The subject of data set [11] is Mus musculus. As to the kind of experiment: Stimulation of spontaneous locomotor activity of compound was measured in mice at a dose of 0.2 mmol/kg). It counts as functional.
For data set [12], the system named is Mus musculus. As to the kind of experiment: Stimulation of spontaneous locomotor activity of compound was measured in mice at a dose of 0.4 mmol/kg). It counts as functional.
Data set [13] deals with Mus musculus. As to the kind of experiment: Modification of circling behavior in mice with unilateral striatal lesions produced by 6-hydroxydopamine injection was measured at a dose of 0.2 mmol/kg. In kind it is functional.
In data set [14] the test system is Mus musculus. The data set can be described thus: Stimulation of spontaneous locomotor activity of compound was measured in mice at a dose of 0.0125 mmol/kg). It counts as functional.
Data set [15] has as its system Mus musculus. As to the kind of experiment: Stimulation of spontaneous locomotor activity of compound was measured in mice at a dose of 0.20 mmol/kg). It counts as functional.
Data set [16] relates to Mus musculus. As to the kind of experiment: Modification of circling behavior in mice with unilateral striatal lesions produced by 6-hydroxydopamine injection was measured at a dose of 0.05 mmol/kg. In kind it is functional.
The test system of data set [17] is Mus musculus. The data set can be described thus: Modification of circling behavior in mice with unilateral striatal lesions produced by 6-hydroxydopamine injection was measured at a dose of 0.10 mmol/kg. It counts as functional.
Data set [18] relates to Mus musculus. The data set can be described thus: Modification of circling behavior in mice with unilateral striatal lesions produced by 6-hydroxydopamine injection was measured at a dose of 0.15 mmol/kg. In kind it is functional.
The test system of data set [19] is Mus musculus. As to the kind of experiment: Modification of circling behavior in mice with unilateral striatal lesions produced by 6-hydroxydopamine injection was measured at a dose of 0.20 mmol/kg. It counts as functional.
Data set [20] deals with Mus musculus. As to the kind of experiment: Stimulation of spontaneous locomotor activity of compound was measured in mice at a dose of 0.15 mmol/kg). In kind it is functional.
Data set [21] has as its system Mus musculus. The data set can be described thus: Stimulation of spontaneous locomotor activity of compound was measured in mice at a dose of 0.30 mmol/kg). It counts as functional.
Data set [22] deals with Mus musculus. As to the kind of experiment: Stimulation of spontaneous locomotor activity of compound was measured in mice at a dose of 0.4 mmol/kg); Lethal. In kind it is functional, organism-based.
Data set [23] concerns Mus musculus. As to the kind of experiment: Modification of circling behavior in mice with unilateral striatal lesions produced by 6-hydroxydopamine injection was measured at a dose of 0.1 mmol/kg. It counts as functional.

As usually defined, the logP is a log measure of how a compound divides between an organic and an aqueous phase.

Turning to `CN1CCc2cccc3c2[C@H]1Cc1ccc(O)c(O)c1-3` [APOMORPHINE], the Net turns/min in the data set on Mus musculus [1] was found to be 2.6.
Turning to `CC(N)Cc1ccccc1` (stereo not drawn) [AMPHETAMINE], the Activity was 177 in the data set on Mus musculus [2], 993 in the data set on Mus musculus [3] and 562 in the data set with Mus musculus [5]. The Net turns/min in the data set with Mus musculus [4] is on record as 5.5.
In data set [6], `CCCC12CC3CC(CC(N)(C3)C1)C2` showed a lipophilicity (logP) of 3.76. Moreover, the Activity in the data set on Mus musculus [7] is given as 75; in the data set on Mus musculus [8], 75; in the data set with Mus musculus [9], 94.
On to `NC12CC3CC(CC(C3)C1)C2` [AMANTADINE], for which the logP in data set [6] was 2.44. Moreover, the Activity with Mus musculus [8] was 87; with Mus musculus [10], 201; in the data set on Mus musculus [11], 243; in the data set on Mus musculus [12], 44. In the data set with Mus musculus [13], this compound had a Net turns/min of 1.1.
On to `CC12CC3CC(C1)CC(N)(C3)C2`, for which the log partition coefficient (logP) in [6] stood at 3.01. Moreover, the Activity in the data set with Mus musculus [8] is 37; with Mus musculus [10], 144; with Mus musculus [11], 383.
For the compound `CC12CC3CC(C)(C1)CC(N)(C3)C2` [MEMANTINE], the Activity with Mus musculus [14] worked out at 181; with Mus musculus [7], 264; with Mus musculus [8], 377; in the data set with Mus musculus [9], 916; in the data set with Mus musculus [15], 1378. Besides, the Net turns/min in the data set with Mus musculus [16] stood at 1; with Mus musculus [17] it was 2.6; with Mus musculus [18], 4.3; in the data set with Mus musculus [19], 2.6.
In turn, `CCC12CC3CC(CC(N)(C3)C1)C2` gave a logP in [6] of 3.4. Further, the Activity was 61 with Mus musculus [7]; 147 with Mus musculus [8]; 237 with Mus musculus [9]; 432 in the data set with Mus musculus [20]; 522 in the data set with Mus musculus [15]; 368 in the data set on Mus musculus [21]. Besides, the Net turns/min amounted to 1.3 in the data set on Mus musculus [16], 1.2 in the data set with Mus musculus [17], 2 in the data set on Mus musculus [18] and 1.2 with Mus musculus [19].
In the case of `CCC12CC3CC(N)(C1)CC(CC)(C3)C2`, the logP in data set [6] turned out to be 4.36. Moreover, the Activity with Mus musculus [7] was 154; in the data set on Mus musculus [8], 383; in the data set with Mus musculus [9], 716; with Mus musculus [15], 478. This compound also had a Net turns/min in the data set on Mus musculus [17] of 1.6.
Turning to `CC12CC3(C)CC(C)(C1)CC(N)(C2)C3`, the logP in [6] worked out at 4.01. Besides, the Activity is on record as 148 in the data set on Mus musculus [7]; 264 with Mus musculus [8]; 351 with Mus musculus [10]; 472 in the data set with Mus musculus [11]; “Lethal” in the data set on Mus musculus [22]. Also, the Net turns/min in the data set with Mus musculus [18] amounted to 1.2; in the data set with Mus musculus [23], 1.

Values taken from ChEMBL document CHEMBL1121932, “Structure-anti-Parkinson activity relationships in the aminoadamantanes. Influence of bridgehead substitution” (J Med Chem, 1982).
